Where two headings read alike, the source gives them in different places.
Tests used:
Format in all cases: in vivo, mouse
serum TNF-α [1] = assay: Serum TNF-α after LPS challenge in mice (ELISA); conditions: 20 mg/kg compound, LPS 5 mg/kg, four hours
Description: (§1) Ten 10-week-old (20±2 gram) female BALB/c mice (Charles River Laboratories, Kingston, N.Y.) were housed in a group of 5 per cage with free access to food and water and were acclimatized for at least one week prior to experimentation. On the day of experiment, mice were weighed and randomly distributed into group of 10 animals of equal mean body weight. Mice were injected i.p. with 200 μL of formulated compound 7e or buffer alone immediately before the i.p. injection of LPS (Escherichia coli 0111:B4, 10 mg/kg or 5 mg/kg body weight) and β-D-galactosamine (50 mg/kg body weight). […] Mouse serum Il-1β and TNF-α were measured by ELISA using a “mouse IL 1β immunoassay or mouse TNF-α immunoassay” kits (R&D System Minneapolis, Minn.) following manufacturer's direction. Serum MIF concentrations in mouse serum were quantified by a sandwich ELISA (ChemiKine MIF Kit, Chemicon, San Diego, Calif.). Samples were analyzed in duplicate, and results were averaged.
(§2) An initial control experiment was conducted to determine the base line levels of endogenous MIF in the murine model system (female Balb/c mice), and further to determine the rate and extent of increase in endogenous MIF following treatment with LPS (10 mg/kg). […] The level of MIF in serum was measured by HPLC as described above at 0, 2, 5 and 6 hours following LPS/galactosamine treatment. […]

serum MIF [2] = assay: Collagen induced arthritis model, serum MIF (ELISA); conditions: day 74, compared to untreated CIA samples
Description: (§3) In another experiment, fifteen DBA/1J mice, age 10–12 weeks were immunized on day 0 at the base of the tail with bovine collagen type II (CII 100 μg), emulsified in Freunds complete adjuvant (FCA; GibcoBRL). On day 21, a second dose of collagen was administered via the same route, emulsified in Freunds incomplete adjuvant. On day 28 the mice were injected subcutaneously with 100 μg of LPS (055:B5). On day 71 the mice were injected i.p. with 40 μg LPS (0111:B4). Groups and treatment protocol were the same as described as above. On day 74 blood samples were collected and cytokines were measured.

serum IL-1β = assay: Serum IL-1β after LPS challenge in mice (ELISA); conditions: 20 mg/kg compound, LPS 5 mg/kg, four hours
Description: as §1, §2

DBA/1LacJ mice = assay: Collagen induced arthritis model, paw thickness; conditions: day 74, eight doses at 0.4 mg/dose; vehicle 1.99 mm; p<0.05
Description: Twenty DBA/1LacJ mice, age 10–12 weeks, were immunized on day 0 at base of the tail with bovine collagen type II (CII 100 μg) emulsified in Freunds complete adjuvant (FCA; GibcoBRL). On day 7, a second dose of collagen was administrated via the same route (emulsified in Freunds incomplete adjuvant). On Day 14 mice were injected subcutaneously with 100 mg of LPS (055:B5). On day 70 mice were injected 40 μg LPS (0111:B4) intraperitoneally. Groups were divided according paw thickness, which was measured by a caliper, after randomization, to create a balanced starting group. Compound in buffer was given to mice on days 71, 72, 73, and 74 (total eight doses at 0.4 mg/dose, approximately 20 mg/kg of body weight). Mice were then examined on day 74 by two observers for paw thickness. FIG. 14 sets forth the experimental timeline. In this experiment, subsided mice (decline of full-blown arthritis) were treated with a final i.p. injection of LPS on day 70 to stimulate cytokine production as well as acute inflammation.

[3] = test system: BALB/c mice sensitized with β-D-galactosamine
serum TNF-α [4] = assay: Collagen induced arthritis model, serum TNF-α (ELISA); conditions: day 74, compared to untreated CIA samples
Description: as §3

serum MIF [5] = assay: Serum MIF after LPS/galactosamine challenge in mice (ELISA)
Description: Doses of lipopolysacchraride (LPS) were made fresh prior to each experiment. LPS (Escherichia Coli 0111:B4, Sigma) was reconstituted by adding 0.5% TEA (1 ml USP water+[…] Triethylamine (Pierce)) to a vial of 5 mg endotoxin. Once reconstituted, the solution was incubated at 37° C. for 30 minutes. Subsequently, the solution was sonicated in a 56–60° C. bath sonicator for 30 seconds 3 times. Following sonication the mixture was vortexed for 3 minutes continuously. The stock solution of LPS was then ready for use.
Ten 10-week-old (20±2 gram) female BALB/c mice (Charles River Laboratories, Kingston, N.Y.) were housed in a group of 5 per cage with free access to food and water and were acclimatized for at least one week prior to experimentation. On the day of experiment, mice were weighed and randomly distributed into group of 10 animals of equal mean body weight. […] Mouse serum Il-1β and TNF-α were measured by ELISA using a “mouse IL 1β immunoassay or mouse TNF-α immunoassay” kits (R&D System Minneapolis, Minn.) following manufacturer's direction. Serum MIF concentrations in mouse serum were quantified by a sandwich ELISA (ChemiKine MIF Kit, Chemicon, San Diego, Calif.). Samples were analyzed in duplicate, and results were averaged. […]

Q: What does the source list for `Cn1c(=O)c([N+](=O)[O-])c(N2CCN(C(=O)c3ccco3)CC2)c2ccccc21` [compound 7e]?
A: serum TNF-α level (serum TNF-α [1]): reductions; serum MIF levels (serum MIF [2]): reduced serum MIF levels; serum IL-1β level (serum IL-1β): reductions; edema of the paw (paw thickness) (DBA/1LacJ mice): 1.87 mm; survival at 12 hours ([3]; 1 mg/kg LPS, 20 mg/kg compound, neutralized by 300 μg/kg human recombinant MIF): significantly more (p<0.01) mice survive; 75% Animal Death ([3]; LPS Dosage 0.1 mg/kg): >100 h; 75% Animal Death ([3]; LPS Dosage 0.5 mg/kg): >100 h; 75% Animal Death ([3]; LPS Dosage 2 mg/kg): >100 h; 75% Animal Death ([3]; LPS Dosage 5 mg/kg): 32.0 h; 75% Animal Death ([3]; LPS Dosage 10 mg/kg): 18.0 h; 75% Animal Death ([3]; LPS Dosage 40 mg/kg): 11.6 h; survival ([3]; lethal dose of LPS (2, 5 and 10 mg/kg), 20 mg/kg i.p., control 6%, p=0.0004): 47%; serum TNF-α levels (serum TNF-α [4]): more significant inhibition of serum TNF-α levels; decrease in serum MIF (serum MIF [5]; 5 mg/kg LPS, four hours following treatment, p=0.0003): 60%; level of circulating MIF (serum MIF [5]; 10 mg/kg LPS, 20 mg/kg i.p., p=0.05): significant decrease in the level of circulating MIF

From patent US7084141B2, “Inhibitors of macrophase migration inhibitory factor and methods for identifying the same” (Avanir Pharmaceuticals, priority 2001, dated 2006)
